In patent US10385403B2, “DDR2 mutations in squamous cell lung cancer” (The Broad Institute, Inc., priority 2012, dated 2019):
pIC50: −log10 of the molar value. Entries after “also recorded” stand apart in the source; their conditions may differ.

How the values were obtained:
[1] = system: Ba/F3 cells expressing DDR2 mutants; assay: Four-day proliferation of IL-3-independent Ba/F3 cells; assay type: cell-based; conditions: for Killing / proliferation of Ba/F3 cells expressing DDR2 mutants: single agent
Protocol: (§1) Cell Culture. A549, NCI-H2286, HCC-366 and NCI-H1703 cells were obtained from the core collection at the Dana Farber Cancer Institute, having previously been purchased from the ATCC and used to establish a collection of early passage lung cancer cell lines which were analyzed by fingerprinting and SNP arrays (32). All cells used for the experiments described in this manuscript were obtained from freezes made at that time. Lung cancer cell lines were grown in RPMI (Invitrogen) with 10% fetal calf serum, NIH-3T3 cells were grown in DMEM (Mediatech) with 10% serum and Ba/F3 cells in RPMI supplemented with 10% serum and IL-3 (BD Biosciences) at 10 ng/ml. For IL-3 withdrawal experiments Ba/F3 cells were collected via centrifugation, washed once in sterile PBS and then resuspended in media without IL-3. Colony formation assays in NIH-3T3 cells were performed in six-well plates in which 25,000 NIH-3T3 cells were plated in triplicate in 1 ml of 0.33% top agar on top of 2 ml of 0.5% bottom agar. After three weeks colonies were counted using the NIH ImageJ software.
(§2) Cell Proliferation and Viability Assays. […] Proliferation was measured four days later.

[2] = system: Src and STAT5 phosphorylation in DDR2 L63V-expressing Ba/F3 cells; assay: Immunoblots of phospho-Src and phospho-STAT5; assay type: cell-based; conditions: single agent or with nilotinib, AP24534 or dasatinib; two days
Protocol: Immunoblots: Immunoblots were performed using the Nupage system (Invitrogen) per the manufacturer's protocol. Cells were lysed in 1% NP-40 with protease (Roche) and phosphatase inhibitors (Calbiochem) and protein concentration assayed with the Bradford reagent (Bio-Rad). Primary antibodies used were Flag-M2 (Sigma), phospho-Y417-Src (Cell Signaling Technologies), phospho-Y694-STAT5 (Cell Signaling) and Actin (Santa Cruz). A DDR2 antibody was generated for this project by Bethyl Labs. Secondary HRP-conjugated antibodies were all obtained from Pierce and proteins detected by pico-ECL (Thermo Scientific). Images were imported into Adobe Illustrator using an Epson 4490 scanner. […] In all cases adjustment of brightness or contrast the adjustment was applied uniformly to the image as a whole.

[3] = system: SCC lines harboring DDR2 mutations (NCI-H2286, HCC-366); assay: Cell proliferation of DDR2-mutant SCC lines (Cell-Titer-Glo); assay type: cell-based
[4] = system: NCI-H1703 SCC cell line (PDGFRA amplification); conditions: NCI-H1703, positive control line
Protocol: Cell Proliferation and Viability Assays. Cell proliferation was measured with the Cell-Titer-Glo reagent (Promega) per the manufacturer's instructions. For experiments with the SCC cell lines cells were plated in clear-bottomed 96 well plates at a density of 1500 cells per well. The following day the drug was added and cell proliferation was measured six days later for the SCC cell lines. For Ba/F3 cells were plated at 5000 cells per well and the drug added the same day. Proliferation was measured four days later. Proliferation measurements were made using a standard 96 well plate luminometer/plate reader. Data are shown as relative values in which the luminescence at a given drug concentration is compared to untreated cells of the same cell type.
Statistics: For proliferation and colony formation assays mean values from a minimum of triplicate samples are reported as well as standard errors as calculated by Microsoft Excel. IC50 values were obtained using Graph Pad Prism software.

DDR2 mutant cell lines [5] = assay: Cell viability by trypan blue exclusion; assay type: cell-based
Protocol: as §2

[6] = system: NIH-3T3 cells expressing L63V DDR2; assay: Soft agar colony formation; assay type: cell-based; conditions: L63V DDR2, single application at plating
Protocol: as §1

NCI-H1703 xenografts = assay: Xenograft tumor size in nude mice; conditions: 50 mg/kg oral gavage, two weeks
NCI-H2286 xenografts = assay: Xenograft tumor size in nude mice; conditions: 50 mg/kg oral gavage, two weeks
[7] = human, in vivo; cited from earlier work
DDR2 mutant cell lines [8] = assay: Annexin V analysis 48 hours after addition of drug; assay type: cell-based; conditions: 48 hours after drug
[9] = system: HCC-366 cells (DDR2 L239R); conditions: previous report; cited from earlier work
[10] = system: HCC-366 cells (DDR2 L239R)
Description: (§3) Cell Proliferation and Viability Assays. […] Kinase inhibitors were purchased from LC Labs or were synthesized by Nathanael Gray's laboratory at Harvard Medical School.

[11] = system: NCI-H2286 cells (DDR2 I638F)
Description: as §3

Compound	Proliferation on addition of AZD0530 ([1]; Ba/F3 DDR2 L63V grown in 50 nM nilotinib)	Killing / proliferation of Ba/F3 cells expressing DDR2 mutants ([1]; without IL-3, four days)	Src and STAT5 phosphorylation [2]	Effect on proliferation at 50 nM ([1]; 50 nM, wild-type Ba/F3 or Ba/F3 expressing DDR2 mutations)	Proliferation of SCC lines harboring DDR2 mutations [3]	pIC50 ([1]; mean over Ba/F3 lines expressing DDR2 mutants, without IL-3, four days, read-out: Mean calculated IC50)	Sensitivity of proliferation [4]	Cell death vs cell cycle arrest by trypan blue exclusion (DDR2 mutant cell lines [5])	Colony formation in soft agar [6]	Tumor size (NCI-H1703 xenografts)	Tumor size (NCI-H2286 xenografts)	Toxicity in patients [7]	Cellular annexin V staining (DDR2 mutant cell lines [8])	Sensitivity rank among 83 NSCLC cell lines [9]	Increase of IC50 with ectopic DDR2 T654M gatekeeper mutation ([10]; HCC-366 expressing T654M in cis with L239R)	pIC50 ([10]; read-out: IC50, inhibition of proliferation, HCC-366, six days)	Increase of IC50 with ectopic DDR2 T654M gatekeeper mutation ([11]; NCI-H2286 expressing T654M in cis with I638F)	pIC50 ([11]; read-out: IC50, inhibition of proliferation, NCI-H2286, six days)
CN1CCN(CCOc2cc(OC3CCOCC3)c3c(Nc4c(Cl)ccc5c4OCO5)ncnc3c2)CC1 [AZD0530]	marked reduction in proliferation	modest effect on the proliferation; also recorded: minimal toxicity	reduced Src and STAT5 phosphorylation in a dose-dependent fashion	–	–	–	–	–	–	–	–	–	–	–	–	–	–	–
Cc1cn(-c2cc(NC(=O)c3ccc(C)c(Nc4nccc(-c5cccnc5)n4)c3)cc(C(F)(F)F)c2)cn1 [Nilotinib]	–	modest activity; also recorded: minimal toxicity	–	little effect on proliferation	inhibited the proliferation	–	–	–	–	–	–	–	–	–	–	–	–	–
N-(2 ? chloro-6-methylphenyl)-2-[[6-[4-(2-hydroxyethyl)-1-piperazinyl]-2-methyl-4 ? pyrimidinyl]amino]-5-thiazolecarboxamide, monohydrate [Dasatinib]	–	–	–	–	–	6.17	sensitive	cell death as opposed to cell cycle arrest	inhibited	decrease in tumor size	decrease in tumor size	myelosuppression and the development of pleural and pericardial effusions	increase in cellular annexin V staining	most sensitive squamous cell lung cancer line	209 fold	6.85	35 fold	6.86
